Measurements published in patent US8623906B2, “Carboxy isatin hydrazones and their esters as Shp2 inhibitors” (H. Lee Moffitt Cancer Center and Research Institute, Inc., priority 2009, dated 2014).
Like-named read-outs stand apart in the source and are kept apart here.

Tests used:
[1] = tested on: GST-Shp2 PTP domain protein; assay type: biochemical
Method: All reactions were monitored by thin layer chromatography (TLC) or ^1H NMR. Some products, which could not be purified by simply washing, were purified by Flashmaster chromatography. […] After the purity and structure were confirmed, samples were tested for IC50 by DiFMUP assay, seen in Table 1, appended.
Curve fitting and IC50 were obtained using the GraphPad Prism program (GraphPad Software).

[2] = tested on: Shp2 in MDA-MB-468 cells; assay type: cell-based
Method: (§1) To measure Shp2 PTP activity in immune complexes, cells were lysed in ice-cold PTP lysis buffer [25 mM Hepes, pH 7.4, 150 mM NaCl, 1 mM DTT, 2 mM EDTA, 0.5% Triton X-100, 1:50 diluted protease inhibitor cocktail (Roche, Basel, Switzerland)]. Cell lysate supernatants (0.2 mg/each) were incubated with an anti-Shp2 antibody (Santa Cruz Biotechnology, Santa Cruz, Calif.) or with an anti-Flag antibody M2 (Sigma-Aldrich, St. Louis, Mo.) plus protein G-Sepharose for 2 h at 4° C. Immunoprecipitates were washed twice with the PTP lysis buffer and twice with the Reaction Buffer A (25 mM Hepes, pH 7.4, 50 mM NaCl, 1 mM DTT, 0.05% Triton X-100). Each Shp2 immune complex was resuspended in 100 μl of reaction buffer containing 50 μM DiFMUP and incubated at room temperature for 20 min. After a brief centrifugation, supernatants were transferred into 96-well plates and the DiFMU fluorescence signal was measured. The remaining immune complex pellets were used for immunoblotting analysis of Shp2 protein.

[3] = tested on: Shp2^E76K in TF-1/Shp2^E76K cells; assay type: cell-based
Method: as §1

[4] = tested on: pISRE-Luc in HT-29 cells; test: ISRE luciferase reporter assay; assay type: cell-based; details: 50 U/ml IFN-γ alone, 6 h
Method: Luciferase reporter assays were conducted using HT-29 cells (5×10^5 cells/each in 12-well plate) were co-transfected with 1.6 μg pISRE-Luc (Clontech, Mountain View, Calif.) and 0.4 μg β-gal plasmids with LipofectAMINE 2000 reagent. Eighteen hours after transfection, cells were incubated in fresh medium, pretreated with indicated concentrations of SPI-112Me or mocked treated for 2 h, and then stimulated with 50 U/ml IFN-γ for 6 h or left unstimulated. Luciferase and β-galactosidase activities were determined as described (Ren, et al., Shp2E76K mutant confers cytokine-independent survival of TF-1 myeloid cells by up-regulating Bcl-XL. J Biol Chem 2007; 282:36463-73). The luciferase activity was then normalized to β-galactosidase-galactosidase activity as an internal control for transfection efficiency.

[5] = tested on: HT-29 cells; test: Viable cell number (CellTiterGlo), 4 days, Bliss synergism; details: IFN-γ 100 U/ml alone
Method: TF-1/Shp2^E76K and HT-29 Cells (1,000 cells/well in triplicate) were plated in 96-well plates in RPMI160/10% FBS plus test agent(s) in a total volume of 100 μl. […] After incubation for 4 days at 37° C./5% CO2, relative viable cell number was measured using the CelltiterGlo reagent (Promega) following the supplier's instruction.
Assume X is the fraction of inhibition caused by the first agent, Y is the fraction of inhibition caused by the second agent, and Z is the fraction of inhibition caused by the combination of both agents,
If Z=X+Y−XY, then the effect of two agents is additive.
If Z>X+Y−XY, then the effect of two agents is synergistic.
If Z<X+Y−XY, then the effect of two agents is antagonistic.

## O=C(O)CCC(=O)N1CCc2cc(S(=O)(=O)N3CCN(c4ccc(C(=O)O)cc4)CC3)ccc21 [XW3-002]
[1]; Table 1, DiFMUP assay
  IC50: 6.1 ± 1.8 µM

## O=C(O)/C=C/C(=O)N1CCc2cc(S(=O)(=O)N3CCN(c4cccc(Cl)c4)CC3)ccc21 [JHE-01-129A]
[1]
  IC50: 2.8 µM

## COc1cccc(C(=O)N2CCc3cc(S(=O)(=O)N4CCN(c5cccc(Cl)c5)CC4)ccc32)c1 [JHE-02-035A]
[1]
  IC50: 7.8 µM

## O=C(c1ccc(Cl)c(Cl)c1)N1CCc2cc(S(=O)(=O)N3CCN(c4cccc(Cl)c4)CC3)ccc21 [JF023]
[1]
  IC50: 7.1 µM

## Cc1cccc(N2CCN(S(=O)(=O)c3ccc4c(c3)CCN4C(=O)CCC(=O)O)CC2)c1 [XW2-057]
[1]; Table 1, DiFMUP assay
  IC50: 3.4 ± 2.3 µM

## O=C1Nc2ccc(S(=O)(=O)NCc3ccc(F)cc3)cc2/C1=N/Nc1cccc(C(=O)O)c1 [SPI-112, (Z)-3-(2-(5-(N-(4-fluorobenzyl)sulfamoyl)-2-oxoindolin-3-ylidene)hydrazinyl)benzoic acid]
[1]
  IC50: 2.6 µM
[2]
  effect on EGF-stimulated Shp2 PTP activity: did not affect
[3]
  effect on Shp2^E76K PTP activity in treated cells: no decrease

## COc1cccc(NC(=O)N2CCc3cc(S(=O)(=O)N4CCN(c5cccc(Cl)c5)CC4)ccc32)c1 [JHE-02-032B]
[1]
  IC50: 4.8 µM

## O=C(Nc1cccc(Cl)c1)N1CCc2cc(S(=O)(=O)N3CCN(c4cccc(Cl)c4)CC3)ccc21 [JHE-02-032A]
[1]
  IC50: 8.3 µM

## O=C(O)CCC(=O)N1CCc2cc(S(=O)(=O)N3CCN(c4ccc(F)cc4)CC3)ccc21 [XW2-011B]
[1]
  IC50: 47.8 µM

## COC(=O)c1cccc(N/N=C2\C(=O)Nc3ccc(S(=O)(=O)NCc4ccc(F)cc4)cc32)c1 [SPI-112Me, (Z)-3-(2-(5-(N-(4-fluorobenzyl)sulfamoyl)-2-oxoindolin-3-ylidene) hydrazinyl)benzoic acid methyl ester]
[1]
  IC50: > 100 µM
[2]; 20 μM pretreatment, EGF 50 ng/ml, 10 min
  reduction of EGF-stimulated Shp2 PTP activity: 77%
[3]; GM-CSF-free medium
  effect on Shp2^E76K PTP activity in treated cells: lower Shp2^E76K PTP activity

## O=C(O)CCC(=O)N1CCCc2cc(S(=O)(=O)N3CCN(c4cccc(Cl)c4)CC3)ccc21 [JHE-02-023]
[1]; Table 1, DiFMUP assay
  IC50: 37.3 ± 5.3 µM

B1: IFN-γ: interferon gamma used to stimulate HT-29 cells, alone or combined with SPI-112Me (protein, UniProt P01579 24-161, looked up)
Interferon gamma: QDPYVKEAENLKKYFNAGHSDVADNGTLFLGILKNWKEESDRKIMQSQIVSFYFKLFKNFKDDQSIQKSVETIKEDMNVKFFNSNKKKRDDFEKLTNYSVTDLNVQRKAIHELIQVMAELSPAAKTGKRKRSQMLFRG
[4]
  activation of ISRE luciferase activity: 26%
[5]
  fraction of inhibition: 0.18
